Values joined by “and” are separate entries in the source; they are usually repeats but may differ in a detail not shown here. Equal entries are not always repeated.
Legend:
CEM/dCK- [1] = assay: 3H-TdR incorporation at 72 hr (24 hr drug exposure, wash, 48 hr); assay type: cell-based; conditions: Homo sapiens, CCRF-CEM, read-out: IC50 in μM (3H-TdR incorporation at 72 hr) CEM/dCK- 24 h, CCRF-CEM deoxycytidine kinase-deficient; 24 h drug exposure, 72 hr assay
Protocol: (§1) Exposition of 24 hr to drug, wash, incubated for another 48 hr (total of 72 hr assay)
(§2) (3H-Thymidine Incorporation Assay)

H-460 [2] = assay: MTT assay at 72 hr (24 hr drug exposure, wash, 48 hr); assay type: cell-based; conditions: Homo sapiens, NCI-H460, read-out: IC50 H-460 24 h, MTT at 72 hr, 24 h exposure, single experiment
Protocol: (§3) Exposition of 24hr to drug, washed, and incubated for another 48hr (total of 72hr assay)

SF-268 [3] = assay: as above; assay type: cell-based; conditions: Homo sapiens
Protocol: as §3

MCF-7 [4] = assay: as above; assay type: cell-based; conditions: Homo sapiens, MCF7, read-out: IC50 MCF-7 24 h, MTT at 72 hr, 24 h exposure, single experiment
Protocol: as §3

H-460 [5] = assay: 3H-TdR incorporation at 72 hr (24 hr drug exposure, wash, 48 hr); assay type: cell-based, Human; conditions: Homo sapiens, NCI-H460, read-out: IC50 in μM (3H-TdR incorporation at 72 hr) H-460 24 h, H-460 Human Lung Carcinoma, 72 hr assay
Protocol: as §1, §2

SF-268 [6] = assay: as above; assay type: cell-based, Human; conditions: Homo sapiens, SF-268, read-out: IC50 in μM (3H-TdR incorporation at 72 hr) SF-268 24 h, SF-268 Human Central Nervous System Tumor; 24 h drug exposure, 72 hr assay
Protocol: as §1, §2

MCF-7 [7] = assay: as above; assay type: cell-based, Human; conditions: Homo sapiens, MCF7, read-out: IC50 in μM (3H-TdR incorporation at 72 hr) MCF-7 24 h, MCF-7 Human Breast Carcinoma, 72 hr assay
Protocol: as §1, §2

CCRF-CEM = assay: MTT or WST-1 assay at 72 hr (24 hr drug exposure, wash, 48 hr); assay type: cell-based; conditions: Homo sapiens, CCRF-CEM, read-out: IC50 CCRF-CEM 24 h, MMT or WST-1 at 72 hr, 24 h exposure, single experiment
Protocol: as §3

CEM/dCK- [8] = assay: as above; assay type: cell-based; conditions: for Resistance Factor*: CEM/dCK- versus CCRF-CEM, single experiment; for IC50: read-out: IC50 CEM/dCK- 24 h, MMT or WST-1 at 72 hr, 24 h exposure, single experiment
Protocol: as §3

CEM cells = assay: CellTiter 96 cell proliferation assay (chemosensitivity), 48 h; assay type: cell-based
Protocol: The chemosensitivity of suspension cells lines (e.g., CEM or CEM-derivatives) is assessed using the CellTiter 96 ? proliferation assay. […] Adherent cell lines (e.g., DU145 or DU145^R) are seeded (^˜10^5 cells) in triplicate dishes, 24 h before drug exposure. Growth inhibition is determined by trypsinization and counting cells electronically.

SF-268 [9] = assay: 3H-TdR (3H-thymidine) incorporation assay at 72 hr; assay type: cell-based, Human
H-460 [10] = assay: 3H-TdR (3H-thymidine) incorporation assay at 72 hr; assay type: cell-based, Human
CEM/ARAC8C cells = assay: Cellular uptake assay of [3H]nucleoside in nucleoside-transport deficient CEM/ARAC8C cells; assay type: in vitro ADME
Protocol: FIG. 1 Comparative uptake of 30 μM [^3H]-troxacitabine in CEM (Panel A) and CEM/ARAC8C (Panel B) cells. [^3H]-Uridine uptake in either the presence or absence of the hENT1 inhibitor, NBMPR or 5 mM non-radioactive uridine was included for comparison as a control substrate.

hENT1 = biological target: T1, hENT1 (Homo sapiens, UniProt Q99808); assay: Cellular uptake assay of [3H]nucleoside in DU145 cells, with or without NBMPR or excess non-radioactive troxacitabine; assay type: in vitro ADME; design: The presence of functional es-mediated transport (hENT1) in DU145 cells; endogenous in cells; host or cells: DU145 cells; conditions: DU-145, 10 μM, 6-min time course, read-out: inhibition of total [3H]uridine uptake in the presence of NBMPR
T1 sequence (Q99808 1-456): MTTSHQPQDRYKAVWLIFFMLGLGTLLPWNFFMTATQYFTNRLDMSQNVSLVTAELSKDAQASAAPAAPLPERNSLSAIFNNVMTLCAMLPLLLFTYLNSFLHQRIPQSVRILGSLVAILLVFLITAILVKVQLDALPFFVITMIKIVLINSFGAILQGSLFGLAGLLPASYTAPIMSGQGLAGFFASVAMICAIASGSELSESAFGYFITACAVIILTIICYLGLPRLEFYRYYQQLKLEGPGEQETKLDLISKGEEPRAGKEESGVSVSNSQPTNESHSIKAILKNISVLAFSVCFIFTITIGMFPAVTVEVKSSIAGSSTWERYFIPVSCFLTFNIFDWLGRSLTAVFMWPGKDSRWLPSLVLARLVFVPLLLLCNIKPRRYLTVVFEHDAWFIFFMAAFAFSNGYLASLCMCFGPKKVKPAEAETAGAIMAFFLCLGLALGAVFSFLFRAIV
Protocol: Cancer Res., 56: 4187-4191.
This experiment is designed to show whether [^3H]L-troxacitabine (10 μM) is taken up by DU145 cells and if the rate of uptake is affected by the addition of high concentrations (1 mM) of non-radioactive troxacitabine.

[11] = SF-268, read-out: IC50 SF-268 24 h, MTT at 72 hr, 24 h exposure, single experiment

SMILES	IC50 (CEM/dCK- [1]) [µM]	IC50 (H-460 [2]) [nM]	IC50 (SF-268 [3]; [11]) [nM]	IC50 (MCF-7 [4]) [nM]	IC50 (H-460 [5]) [µM]	IC50 (SF-268 [6]) [µM]	IC50 (MCF-7 [7]) [µM]	IC50 (CCRF-CEM) [nM]	Resistance Factor* (CEM/dCK- [8])	IC50 (CEM/dCK- [8]) [nM]	EC50 (CEM cells; Homo sapiens, CCRF-CEM, 48 h, read-out: EC50 (50% of the dose response curve)) [nM]	effect of the es transport inhibitor NBMPR on resistance of CEM cells (CEM cells; presence of NBMPR)	IC50 (SF-268 [9]; Homo sapiens, SF-268, 24 h, read-out: IC50 SF-268 24 h, Average, Average ± spread of the repeat determinations, 24 h exposure) [nM]	IC50 (SF-268 [9]; read-out: IC50 SF-268 24 h, 24 h drug exposure, wash, another 48 hr, 3H-TdR incorporation at 72 hr, listed as Cytosine Arabinoside) [nM]	IC50 (SF-268 [3]; SF-268, read-out: IC50 SF-268 24 h, Average, MTT at 72 hr, Average of the experiments) [nM]	IC50 (H-460 [10]; Homo sapiens, NCI-H460, 24 h, read-out: IC50 H-460 24 h, Average, Average ± spread of the repeat determinations, 24 h exposure) [nM]	IC50 (H-460 [10]; read-out: IC50 H-460 24 h, 24 h drug exposure, wash, another 48 hr, 3H-TdR incorporation at 72 hr)	uptake of [3H]nucleoside over the 6-min time course (CEM/ARAC8C cells)	inhibition at 10 µM (hENT1) [%]
CCCCCCCC/C=C/CCCCCCCC(=O)Nc1ccn([C@@H]2CO[C@H](CO)O2)c(=O)n1 (stereo in doubt) [Compound 216, Octadec-9-enoic acid [1-(2-hydroxymethyl-[1,3]dioxolan-4-yl)-2-oxo-1,2-dihydro-pyrimidin-4-yl]-amide]	14	64	400	9.4	0.00088	0.018	≤ 0.0001	340	91	31000	–	–	–	–	–	–	–	–	–
CCCCC/C=C\C/C=C\CCCCCCCC(=O)Nc1ccn([C@@H]2CO[C@H](CO)O2)c(=O)n1 [Compound 217, OCTADECA-9,12-DIENOIC ACID [1-(2- HYDROXYMETHYL- [1,3]DIOXOLAN-4-YL)-2- OXO-1,2-DIHYDRO- PYRIMIDIN-4-YL]-AMIDE]	1.2	11	120	3.9	≤ 0.0001	0.00013	≤ 0.0001	360	75	27000	–	–	–	–	–	–	–	–	–
Nc1ccn([C@@H]2O[C@H](CO)[C@@H](O)[C@@H]2O)c(=O)n1 [Cytarabine, cytarabine, reference compound]	–	–	–	–	–	–	–	–	–	–	10	increased resistance	940	300	25000 ± 23000	52	13 nM and 99 nM	–	–
O=c1ccn([C@@H]2O[C@H](CO)[C@@H](O)[C@H]2O)c(=O)[nH]1 [uridine]	–	–	–	–	–	–	–	–	–	–	–	–	–	–	–	–	–	Lack of [^3H]uridine uptake	~75

— patent publication US20030013660A1, “Dioxolane analogs for improved inter-cellular delivery” (Shire BioChem Inc., priority 2000, published 2003)
